In paper PMC6458995, “MAP4K4 Inhibition Promotes Survival of Human Stem Cell-Derived Cardiomyocytes and Reduces Infarct Size In Vivo” (Cell Stem Cell, 2019):

Experiments:
[1] = Oral PK; assay type: in vivo, female CD-1 mice; details: for AUC(0-inf) / Cmax / Tmax / half-life: female, CD-1, mouse, mice, plasma
Method: In vivo pharmacokinetic profiling was performed in female CD-1 mice, using 3 animals per time point. First, 30% w/v Kleptose as excipient was dissolved in water and vortexed gently for several min. Next, 30 mg of the test compound was dissolved into 0.6 mL of DMSO, for a concentration of 50 mg ml^-1, and 4.5 mL of the Kleptose solution was added to 0.5 mL of the test compound solution. A precipitate forms, which re-dissolves over 2-5 min, leaving a clear or slightly hazy solution with a final concentration of 5 mg ml^-1. The dosing solution is used as soon as practicable, vortexing immediately prior to use. This amount was sufficient formulation for 25 doses of 200 μL (20 g mouse). Compounds were administered orally at 50 mg kg^-1, with terminal blood (plasma) sampling at 10 min, 30 min, 1 h, 2.5 h, 5 h, 10 h, and 20 h.

[2] = biological target: ABL1 (Homo sapiens, UniProt P00519); assay: HTRF Transcreener ADP kinase assay; assay type: biochemical; details: for IC50: HTRF Transcreener ADP assay
Method: (§1) MAP4K4 kinase activity was monitored using the CisBio HTRF Transcreener ADP assay, a competitive immunoassay with a reproducible Z’ > 0.6. In the detection step, endogenous ADP and d2-labeled ADP compete for binding an anti-ADP monoclonal antibody labeled with Eu^3+ cryptate. A ratiometric fluorescent readout is used at 665 and 620 nm. […] Assays were run in Greiner low volume plates with a final reaction volume of 10 μl. Percent inhibition was calculated from 100% activity of MAP4K4 (DMSO only) and 0% activity (no enzyme added). Data were either reported as % inhibition at a single dose or as pIC50 values derived from dose response curves (pIC50 = -log[IC50]).
(§2) Kinase selectivity profiling was performed by the International Centre for Kinase Profiling, MRC Protein Phosphorylation and Ubiquitylation Unit (141 kinases; Premier Screen, http://www.kinase-screen.mrc.ac.uk), using a [γ-^33P]ATP filter binding assay ([Bain et al., 2007]). Compounds were screened at 1 μM. For key hits, pIC50 values were then determined by HTRF as above. More complete kinome profiling was performed by Reaction Biology (376 kinases). Stability in mouse and human liver microsomes was determined by Cyprotex.

[3] = biological target: MLK1/MAP3K9 (Homo sapiens, UniProt P80192); assay: HTRF Transcreener ADP kinase assay; assay type: biochemical; details: for IC50: HTRF Transcreener ADP assay
Method: as §1, §2

[4] = biological target: T1, Aurora B (Homo sapiens, UniProt Q96GD4); assay: HTRF Transcreener ADP kinase assay; assay type: biochemical
T1 construct: lines 1-140) and Reaction Biology
Method: as §1, §2

[5] = biological target: T2, GCK/MAP4K2 (Homo sapiens, UniProt Q12851); assay: HTRF Transcreener ADP kinase assay; assay type: biochemical; details: for IC50: HTRF Transcreener ADP assay
T2 sequence (Q12851 1-820): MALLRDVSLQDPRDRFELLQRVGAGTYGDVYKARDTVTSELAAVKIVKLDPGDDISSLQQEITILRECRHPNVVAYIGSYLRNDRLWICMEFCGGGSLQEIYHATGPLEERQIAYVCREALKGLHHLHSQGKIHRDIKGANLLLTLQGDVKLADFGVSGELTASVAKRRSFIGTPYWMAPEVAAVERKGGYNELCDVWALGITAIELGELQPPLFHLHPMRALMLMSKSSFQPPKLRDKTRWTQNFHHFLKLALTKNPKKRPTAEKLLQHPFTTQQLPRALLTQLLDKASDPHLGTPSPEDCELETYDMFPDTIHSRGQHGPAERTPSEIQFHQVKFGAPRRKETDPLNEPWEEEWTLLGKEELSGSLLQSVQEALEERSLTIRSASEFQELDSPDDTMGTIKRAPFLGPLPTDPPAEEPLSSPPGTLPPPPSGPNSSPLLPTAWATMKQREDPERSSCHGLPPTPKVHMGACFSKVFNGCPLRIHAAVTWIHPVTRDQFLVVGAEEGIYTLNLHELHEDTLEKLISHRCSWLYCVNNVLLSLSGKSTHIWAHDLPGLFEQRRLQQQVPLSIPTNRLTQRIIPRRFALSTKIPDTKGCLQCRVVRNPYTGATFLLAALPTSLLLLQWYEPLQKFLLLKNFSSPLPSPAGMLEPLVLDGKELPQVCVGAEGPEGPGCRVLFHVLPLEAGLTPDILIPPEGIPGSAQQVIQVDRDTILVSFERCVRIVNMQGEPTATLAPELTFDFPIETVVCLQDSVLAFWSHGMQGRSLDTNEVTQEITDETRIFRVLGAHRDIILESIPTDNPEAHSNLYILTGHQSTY
Method: as §1, §2

[6] = biological target: GSK3β (Homo sapiens, UniProt P49841); assay: HTRF Transcreener ADP kinase assay; assay type: biochemical; details: for IC50: HTRF Transcreener ADP assay
Method: as §1, §2

[7] = biological target: KHS/MAP4K5 (Homo sapiens, UniProt Q9Y4K4); assay: HTRF Transcreener ADP kinase assay; assay type: biochemical; details: for IC50: HTRF Transcreener ADP assay
Method: as §1, §2

GSK3β, sequence (P49841 whole entry): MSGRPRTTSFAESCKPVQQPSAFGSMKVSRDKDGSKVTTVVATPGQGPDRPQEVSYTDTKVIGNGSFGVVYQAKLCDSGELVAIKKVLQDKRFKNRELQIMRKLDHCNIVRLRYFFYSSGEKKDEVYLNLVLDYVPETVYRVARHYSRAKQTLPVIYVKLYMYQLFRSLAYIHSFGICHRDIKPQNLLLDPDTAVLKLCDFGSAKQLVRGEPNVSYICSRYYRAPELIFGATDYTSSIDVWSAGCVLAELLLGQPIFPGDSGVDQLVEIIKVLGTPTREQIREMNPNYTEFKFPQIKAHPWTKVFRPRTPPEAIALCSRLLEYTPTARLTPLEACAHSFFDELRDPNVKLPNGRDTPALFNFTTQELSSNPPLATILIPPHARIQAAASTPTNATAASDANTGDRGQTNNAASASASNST
MLK1/MAP3K9, sequence (P80192 whole entry): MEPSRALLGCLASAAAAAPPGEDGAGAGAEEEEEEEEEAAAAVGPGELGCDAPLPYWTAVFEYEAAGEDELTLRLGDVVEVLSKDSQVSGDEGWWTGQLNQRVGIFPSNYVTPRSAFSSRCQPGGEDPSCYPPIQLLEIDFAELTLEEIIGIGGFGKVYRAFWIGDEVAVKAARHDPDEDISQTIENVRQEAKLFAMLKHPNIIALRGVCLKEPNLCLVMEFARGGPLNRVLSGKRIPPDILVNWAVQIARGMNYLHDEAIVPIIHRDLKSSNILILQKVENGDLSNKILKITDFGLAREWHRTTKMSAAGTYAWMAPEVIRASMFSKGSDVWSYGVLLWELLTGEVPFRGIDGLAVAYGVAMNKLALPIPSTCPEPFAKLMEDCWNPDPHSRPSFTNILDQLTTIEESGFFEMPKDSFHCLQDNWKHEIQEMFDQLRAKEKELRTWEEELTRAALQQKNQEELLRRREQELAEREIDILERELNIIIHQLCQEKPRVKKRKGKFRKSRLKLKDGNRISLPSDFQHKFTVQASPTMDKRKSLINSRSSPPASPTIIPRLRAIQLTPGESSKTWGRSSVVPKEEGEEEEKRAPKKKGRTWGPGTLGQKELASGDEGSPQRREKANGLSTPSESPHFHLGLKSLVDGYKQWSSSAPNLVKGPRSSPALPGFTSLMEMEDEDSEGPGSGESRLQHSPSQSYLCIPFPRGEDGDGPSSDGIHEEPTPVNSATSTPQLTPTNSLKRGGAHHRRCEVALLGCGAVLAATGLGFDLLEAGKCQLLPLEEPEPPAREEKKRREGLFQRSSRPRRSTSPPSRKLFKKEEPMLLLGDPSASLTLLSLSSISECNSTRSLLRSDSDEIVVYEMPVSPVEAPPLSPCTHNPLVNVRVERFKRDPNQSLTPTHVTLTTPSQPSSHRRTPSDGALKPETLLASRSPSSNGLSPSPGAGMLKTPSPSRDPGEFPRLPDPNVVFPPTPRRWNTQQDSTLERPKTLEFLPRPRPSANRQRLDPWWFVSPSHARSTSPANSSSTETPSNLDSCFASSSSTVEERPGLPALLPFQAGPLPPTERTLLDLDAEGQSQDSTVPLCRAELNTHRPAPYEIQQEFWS
ABL1, sequence (P00519 whole entry): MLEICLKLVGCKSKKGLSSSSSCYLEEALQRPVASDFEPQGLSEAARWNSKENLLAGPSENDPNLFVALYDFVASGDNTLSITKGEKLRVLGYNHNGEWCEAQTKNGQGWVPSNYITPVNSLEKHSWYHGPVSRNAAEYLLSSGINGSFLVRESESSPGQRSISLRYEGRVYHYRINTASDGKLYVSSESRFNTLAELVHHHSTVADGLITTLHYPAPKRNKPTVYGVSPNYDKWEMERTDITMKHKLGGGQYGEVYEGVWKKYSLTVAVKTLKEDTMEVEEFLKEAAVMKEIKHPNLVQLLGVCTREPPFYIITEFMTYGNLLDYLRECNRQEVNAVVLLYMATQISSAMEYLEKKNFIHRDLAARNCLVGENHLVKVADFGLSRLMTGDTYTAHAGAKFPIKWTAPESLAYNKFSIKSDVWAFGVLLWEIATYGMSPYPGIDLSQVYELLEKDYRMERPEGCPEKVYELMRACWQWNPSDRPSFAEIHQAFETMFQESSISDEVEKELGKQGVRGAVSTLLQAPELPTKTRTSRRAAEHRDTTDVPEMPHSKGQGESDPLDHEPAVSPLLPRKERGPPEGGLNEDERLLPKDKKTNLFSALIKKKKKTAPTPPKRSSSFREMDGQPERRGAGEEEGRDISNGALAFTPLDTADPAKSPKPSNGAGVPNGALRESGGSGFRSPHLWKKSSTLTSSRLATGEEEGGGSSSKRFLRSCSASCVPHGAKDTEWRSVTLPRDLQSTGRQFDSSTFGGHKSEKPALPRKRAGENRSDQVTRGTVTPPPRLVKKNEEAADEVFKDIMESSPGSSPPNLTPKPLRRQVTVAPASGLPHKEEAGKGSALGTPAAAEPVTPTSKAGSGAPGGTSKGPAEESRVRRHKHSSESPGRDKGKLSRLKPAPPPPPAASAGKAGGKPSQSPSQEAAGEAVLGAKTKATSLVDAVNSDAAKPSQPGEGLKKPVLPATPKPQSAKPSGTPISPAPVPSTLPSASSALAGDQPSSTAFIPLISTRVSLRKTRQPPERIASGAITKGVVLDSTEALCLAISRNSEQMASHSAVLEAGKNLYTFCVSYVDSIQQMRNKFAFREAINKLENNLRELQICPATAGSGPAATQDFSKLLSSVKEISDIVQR
KHS/MAP4K5, sequence (Q9Y4K4 whole entry): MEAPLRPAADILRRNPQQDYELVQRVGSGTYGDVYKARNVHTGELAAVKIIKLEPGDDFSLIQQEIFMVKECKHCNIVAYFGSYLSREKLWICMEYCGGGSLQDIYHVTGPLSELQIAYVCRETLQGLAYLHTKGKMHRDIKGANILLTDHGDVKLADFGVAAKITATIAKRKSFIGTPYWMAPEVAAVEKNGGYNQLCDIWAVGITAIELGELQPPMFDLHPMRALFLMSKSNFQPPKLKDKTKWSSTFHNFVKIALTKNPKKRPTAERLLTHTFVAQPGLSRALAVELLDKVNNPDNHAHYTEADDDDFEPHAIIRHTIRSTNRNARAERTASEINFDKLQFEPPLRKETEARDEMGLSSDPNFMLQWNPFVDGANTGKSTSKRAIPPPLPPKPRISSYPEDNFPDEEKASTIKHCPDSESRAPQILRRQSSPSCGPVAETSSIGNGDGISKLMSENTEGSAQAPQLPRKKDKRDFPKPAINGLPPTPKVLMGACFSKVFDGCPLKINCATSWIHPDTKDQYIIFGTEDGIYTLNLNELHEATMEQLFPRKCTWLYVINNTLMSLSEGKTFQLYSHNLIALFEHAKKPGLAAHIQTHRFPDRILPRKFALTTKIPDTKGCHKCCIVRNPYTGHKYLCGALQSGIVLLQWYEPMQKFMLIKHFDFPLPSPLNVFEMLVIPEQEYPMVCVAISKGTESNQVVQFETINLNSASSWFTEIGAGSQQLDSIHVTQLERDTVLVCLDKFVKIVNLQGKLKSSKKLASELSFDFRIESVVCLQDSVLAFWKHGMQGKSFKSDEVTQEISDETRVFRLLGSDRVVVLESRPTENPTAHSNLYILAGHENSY
T1 sequence (Q96GD4 whole entry): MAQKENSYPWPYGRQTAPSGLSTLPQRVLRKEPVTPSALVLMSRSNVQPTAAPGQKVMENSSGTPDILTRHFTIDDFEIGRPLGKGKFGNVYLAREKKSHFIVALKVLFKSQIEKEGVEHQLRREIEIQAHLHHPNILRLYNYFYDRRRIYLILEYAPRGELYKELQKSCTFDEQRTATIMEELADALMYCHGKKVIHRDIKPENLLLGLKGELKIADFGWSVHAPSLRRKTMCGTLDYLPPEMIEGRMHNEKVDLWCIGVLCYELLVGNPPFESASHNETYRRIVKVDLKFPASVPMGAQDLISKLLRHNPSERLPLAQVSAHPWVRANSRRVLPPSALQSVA

| SMILES | AUC(0-inf) ([1]; Oral PK (50 mg kg^−1)) [µM·h] | Cmax ([1]; Oral PK (50 mg kg^−1)) [µM] | Tmax ([1]; Oral PK (50 mg kg^−1)) [h] | half-life ([1]; Oral PK (50 mg kg^−1)) [h] | IC50 ([2]; ABL1) [nM] | IC50 ([3]; MLK1/MAP3K9) [nM] | IC50 ([5]; GCK/MAP4K2) [nM] | IC50 ([6]; GSK3β) [nM] | IC50 ([7]; KHS/MAP4K5) [nM] | further results |
| --- | --- | --- | --- | --- | --- | --- | --- | --- | --- | --- |
| COCCOc1ccc(-c2cn(-c3ccccc3)c3nc[nH]c(=O)c23)cc1 [DMX-5804, 5-[4-(2-methoxy-ethoxy)-phenyl]-7-phenyl-3,7-dihydro-pyrrolo[2,3-d]pyrimidin-4-one] | 63.7 | 13.8 | 1 | 1.8 | 1580 | 64.6 | 316 | 21900 | 437 | improvement of free plasma concentration over the initial inhibitor ([1]; 50 mg kg^−1 oral dose, versus F1386-0303): more than 80 fold; AUCinf, DMX-5804 versus F1386-0303 ([1]; ratio, Oral PK (50 mg kg^−1)): 29.48; Cmax, DMX-5804 versus F1386-0303 ([1]; ratio, Oral PK (50 mg kg^−1)): 46.94; Tmax, DMX-5804 versus F1386-0303 ([1]; ratio, Oral PK (50 mg kg^−1)): 1.00; t1/2, DMX-5804 versus F1386-0303 ([1]; ratio, Oral PK (50 mg kg^−1)): 0.49; Fold Selectivity ([2]; ABL1 versus MAP4K4): 560; DMX-5804 vs F1386-0303 ([2]; ratio of fold selectivity, ABL1): 0.65; Fold Selectivity ([3]; MLK1/MAP3K9 versus MAP4K4): 23; DMX-5804 vs F1386-0303 ([3]; ratio of fold selectivity, MLK1/MAP3K9): 1.53; DMX-5804 vs F1386-0303 ([4]; ratio of fold selectivity): 1.47; Fold Selectivity ([5]; GCK/MAP4K2 versus MAP4K4): 112; DMX-5804 vs F1386-0303 ([5]; ratio of fold selectivity, GCK/MAP4K2): 3.20; Fold Selectivity ([6]; GSK3β versus MAP4K4): 7762; DMX-5804 vs F1386-0303 ([6]; ratio of fold selectivity, GSK3β): 10.00; Fold Selectivity ([7]; KHS/MAP4K5 versus MAP4K4): 153; DMX-5804 vs F1386-0303 ([7]; ratio of fold selectivity, KHS/MAP4K5): 0.88 |
| Oc1ncnc2c1c(-c1ccccc1)cn2-c1ccccc1 [F1386-0303, 5,7-diphenyl-7H-pyrrolo[2,3-d]pyrimidin-4-ol] | 2.16 | 0.295 | 1 | 3.7 | 30200 | 525 | 1230 | 26900 | 6030 | IC50 ([4]; HTRF Transcreener ADP assay): 13200 nM |
